Assays:
Assay type in all cases: biochemical
KLK7 = KLK7 (Homo sapiens, UniProt P49862); experiment: KLK7 enzyme inhibition assay, fluorogenic substrate Suc-Leu-Leu-Val-Tyr-AMC; conditions: for IC50: Table A, read-out: IC50 (μM) KLK7; for selective activity against enzyme: KLK7: Table B, among KLK5, KLK7 and KLK14
Description: (§1) Kallikreins KLK5, KLK7 and KLK14 activities were determined by monitoring the hydrolysis of the appropriate fluorogenic substrate (λexc=355, λem=460 nm) for 15 min at 37° C. in the presence of the untreated kallikrein (control) or kallikrein that had been incubated with a test compound. Substrate and compounds were previously dissolved in DMSO, with the final solvent concentration kept constant at 2% (v/v) (KLK 5 and 14), and 4% (v/v) (KLK7). The composition of the activity buffers (pH 8.0) was 100 mM Tris-HCl, 150 mM NaCl, 0.01% (v/v) Tween 20 for the KLK5 assay, and 100 mM Tris-HCl, 1M NaCl, 0.01% (v/v) Tween 20 in the KLK 7 and 14 assays. The final concentrations were 0.6 nM (KLK5) and 100 μM (Boc-Val-Pro-Arg-AMC) (KLK5 assay), 8 nM (KLK7) and 40 μM (Suc-Leu-Leu-Val-Tyr-AMC, AMC: 7-amino-4-methyl-coumarin) (KLK7 assay), and 0.17 nM (KLK14) and 10 μM (Boc-Val-Pro-Arg-AMC) (KLK14 assay). Using the appropriate substrate, the coumarinic compounds (0.01-100 μM) were tested in duplicate for each inhibitor concentration to detect their inhibitory potential. The enzyme and the inhibitors were incubated for 15 min before the determination of the enzyme activity. Initial rates determined in control experiments (V0) were considered to be 100% of the peptidase activity; initial rates below 100% were considered to be inhibitions. The inhibitory activity of compounds was expressed as IC50 (inhibitor concentrations giving 50% inhibition). The values of IC50 were calculated by fitting the experimental data to the equation: % Inhibition=100×(1−Vi/V0)=100[I]0/(IC50+[I]0), or equation: % Inhibition=100[I]0^nH/(IC50^nH+[I]0^nH),nH is the Hill number.
(§2) The tests were realized at 37° C. after 15 min of incubation at pH 8.

KLK14 = molecular target: T1, KLK14 (Homo sapiens, UniProt Q9P0G3); experiment: KLK14 enzyme inhibition assay, fluorogenic substrate Boc-Val-Pro-Arg-AMC; conditions: for IC50: Table A, read-out: IC50 (μM) KLK14; for selective activity against enzyme: KLK14: Table B, among KLK5, KLK7 and KLK14
T1 sequence (Q9P0G3 25-251): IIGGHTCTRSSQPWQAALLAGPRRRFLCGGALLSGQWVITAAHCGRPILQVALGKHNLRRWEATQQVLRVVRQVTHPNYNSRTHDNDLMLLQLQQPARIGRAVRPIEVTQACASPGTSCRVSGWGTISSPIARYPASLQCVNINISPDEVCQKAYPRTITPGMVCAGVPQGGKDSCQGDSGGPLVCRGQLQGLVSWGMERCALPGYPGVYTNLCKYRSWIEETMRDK
Description: as §1, §2

KLK5 = molecular target: T2, KLK5 (Homo sapiens, UniProt Q9Y337); experiment: KLK5 enzyme inhibition assay, fluorogenic substrate Boc-Val-Pro-Arg-AMC; conditions: for inhibition at 50 µM / IC50 / inhibition at 100 µM: 37° C., 15 min of incubation, pH 8; for IC50: Table A, read-out: IC50 (μM) KLK5
T2 sequence (Q9Y337 23-293): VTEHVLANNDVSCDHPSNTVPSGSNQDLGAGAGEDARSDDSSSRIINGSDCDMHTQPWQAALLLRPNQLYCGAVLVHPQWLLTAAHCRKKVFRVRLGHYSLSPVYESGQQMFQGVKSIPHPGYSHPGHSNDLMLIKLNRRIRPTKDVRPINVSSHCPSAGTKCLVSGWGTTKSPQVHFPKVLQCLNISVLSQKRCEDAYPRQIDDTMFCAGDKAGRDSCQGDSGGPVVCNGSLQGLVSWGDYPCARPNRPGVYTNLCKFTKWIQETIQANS
Description: as §1, §2

[1] = 37° C., 15 min of incubation, pH 8

KLK7, sequence (P49862 30-253): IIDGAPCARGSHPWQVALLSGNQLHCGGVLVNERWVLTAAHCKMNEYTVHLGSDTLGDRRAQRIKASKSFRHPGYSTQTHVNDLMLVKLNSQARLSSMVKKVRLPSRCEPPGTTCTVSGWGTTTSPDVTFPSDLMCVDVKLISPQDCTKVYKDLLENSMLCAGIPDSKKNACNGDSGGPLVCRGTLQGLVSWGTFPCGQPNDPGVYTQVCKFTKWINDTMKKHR

SMILES | inhibition at 100 µM (KLK14; [1]) [%] | IC50 (KLK7; [1]) [µM] | IC50 (KLK5) [µM] | selective activity against enzyme: KLK7 (KLK7) | also measured
O=C(O)c1ccccc1OC(=O)c1cc2cc(CCl)ccc2oc1=O [IK11] |  |  |  |  | inhibition at 100 µM (KLK7; [1]): 63%; IC50 (KLK14; [1]): 43 ± 4 µM; inhibition at 50 µM (KLK5): 37.4%
COC(=O)c1ccc(OC(=O)c2cc3cc(CCl)ccc3oc2=O)cc1 [IK13] | 72 |  |  |  | inhibition at 100 µM (KLK7; [1]): 34%; selective activity against enzyme: KLK14 (KLK14): KLK14
COC(=O)c1ccccc1OC(=O)c1cc2cc(COC(C)=O)ccc2oc1=O [IK8] | 64 | 64.3 ± 2.7 | ~40 |  | 
CC(=O)NCc1ccc2oc(=O)c(C(=O)Oc3cccc(Cl)c3)cc2c1 [IK53] |  |  |  | KLK7 | inhibition at 10 µM (KLK7; 10 μM, 37° C., 15 min of incubation, pH 8): 54%
CC(=O)OCc1ccc2oc(=O)c(C(=O)Oc3cccc(Br)c3)cc2c1 [IK9] |  |  |  |  | inhibition at 50 µM (KLK5): 22%; selective activity against enzyme: KLK5 (KLK5; Table B, among KLK5, KLK7 and KLK14): KLK5
CCOC(=O)c1cc2cc(C)ccc2oc1=O [Compound D5] | 38 |  |  |  | inhibition at 100 µM (KLK7; [1]): 61%; inhibition at 100 µM (KLK5): 90%
COC(=O)c1ccccc1OC(=O)c1cc2cc(CCl)ccc2oc1=O [IK1] |  | 2.7 ± 0.1 | 26.3 ± 1.4 |  | IC50 (KLK14; [1]): 38 ± 5 µM
O=C(Oc1ccc(I)cc1)c1cc2cc(CCl)ccc2oc1=O [LP16] |  |  |  |  | inhibition at 50 µM (KLK7; [1]): 47%
O=C(Oc1cc([N+](=O)[O-])ccc1[N+](=O)[O-])c1cc2cc(CCl)ccc2oc1=O [CFL21] | 43 |  | 121 |  | inhibition at 100 µM (KLK7; [1]): 22%; selective activity against enzyme: KLK14 (KLK14): KLK14
O=C(O)c1ccc(Cl)cc1OC(=O)c1cc2cc(CCl)ccc2oc1=O [IK5] |  | 5.8 ± 0.2 | 36.9 ± 4.2 |  | IC50 (KLK14; [1]): 89 ± 10 µM
CC(=O)OCc1ccc2oc(=O)c(C(=O)Oc3ccccc3C#N)cc2c1 [SMB33, 2-cyanophenyl 6-acetoxymethyl-2-oxo-2H-1-benzopyran-3-carboxylate] |  |  |  |  | inhibition at 50 µM (KLK14; 50 μM, 37° C., 15 min of incubation, pH 8): 27%; selective activity against enzyme: KLK14 (KLK14): KLK14

Further lines, with some results ahead:

inhibition at 100 µM (KLK14; [1]) [%] | IC50 (KLK7; [1]) [µM] | IC50 (KLK5) [µM] | selective activity against enzyme: KLK7 (KLK7) | SMILES | also measured
 | 26.8 ± 1.5 | 54 ± 2 |  | COC(=O)c1cc2cc(CCl)ccc2oc1=O [MFS2] | IC50 (KLK14; [1]): 73 ± 14 µM
 |  | 44 ± 10 |  | Cc1ccc2oc(=O)c(C(=O)Oc3cc(F)ccc3[N+](=O)[O-])cc2c1 [CFL25] | IC50 (KLK14; [1]): 68 ± 9 µM
 |  |  | KLK7 | O=C(Oc1ccccc1Cl)c1cc2cc(O)ccc2oc1=O [MH14] | inhibition at 50 µM (KLK7; [1]): 35%
30 | 0.25 ± 0.01 |  | KLK7 | O=C(Oc1cccc(F)c1)c1cc2cc(CCl)ccc2oc1=O [LP51] | inhibition at 50 µM (KLK5): 26%
 |  |  | KLK7 | CCC(=O)OCc1ccc2oc(=O)c(C(=O)Oc3cncc(Cl)c3)cc2c1 [LP42] | inhibition at 100 µM (KLK7; [1]): 52%; inhibition at 50 µM (KLK5): 22%
 | 0.195 ± 0.024 | 1.3 ± 0.2 | KLK7 | O=C(Oc1cc(Cl)ccc1Cl)c1cc2cc(CCl)ccc2oc1=O [LP74] | IC50 (KLK14; [1]): 54 ± 6 µM
 |  |  | KLK7 | O=C(Oc1ccccc1)c1cc2cc(O)ccc2oc1=O [MH8] | inhibition at 50 µM (KLK7; [1]): 25%
 | 0.136 ± 0.012 | 80 ± 8 |  | O=C(Oc1cc(Cl)cc(Cl)c1)c1cc2cc(CCl)ccc2oc1=O [LP75] | 
73 | 0.9 ± 0.4 |  |  | O=C(Oc1cc(F)ccc1[N+](=O)[O-])c1cc2cc(CCl)ccc2oc1=O [CFL16] | inhibition at 100 µM (KLK5): 40%
48 | 20.9 ± 0.9 |  |  | CCOC(=O)c1cc2cc(CCl)ccc2oc1=O [MFS3] | inhibition at 50 µM (KLK5): 39%
50 | 0.495 ± 0.037 | 59 ± 9 | KLK7 | O=C(Oc1c(Cl)cccc1Cl)c1cc2cc(CCl)ccc2oc1=O [LP72] | 
100 | 0.209 ± 0.006 |  | KLK7 | O=C(Oc1ccccc1Cl)c1cc2cc(CCl)ccc2oc1=O [MFS36] | inhibition at 100 µM (KLK5): 50%

Source: patent US9814696B2, “Use of coumarin derivatives for the preparation of drugs for treating skin diseases” (UNIVERSITE PIERRE ET MARIE CURIE (PARIS 6), priority 2011, dated 2017)
